Measured values published in patent US11807650B2, “NMDA receptor modulators and uses thereof” (Novartis AG, priority 2016, dated 2023).

Assays:
[1] = molecular target: T1, human GRIN1 (transcript variant NR1-3) and GRIN2D expressed in Xenopus oocytes (Homo sapiens, UniProt O15399); assay: NR2D oocyte potentiation assay (two-electrode voltage clamp); format: cell-based; details: 10 uM test compound; glutamate and glycine 10 μM each; holding potential −40 mV
T1 construct: GenScript (GRIN2D synthesis) SC115601; host or cells: Xenopus oocytes injected with cRNA (1 GluN1 : 2 GluN2)
How it was run: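 Xenopus oocytes were defolliculated with collagenase, then injected with 50 nL of cRNA encoding human GluN1 (NR1-3 variant) and GluN2D mixed 1:2 and kept 72 h at 16° C. Two-electrode voltage clamp at −40 mV recorded currents; after 10 μM glutamate plus 10 μM glycine reached plateau, test compound was added until a new plateau formed.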

[2] = molecular target: T2, human GRIN1 (variant NR1-3) and GRIN2D expressed in HEK293 cells (Homo sapiens, UniProt O15399); assay: GluN2D PAM CIQ fluorescence assay (Fluo-8 calcium, FDSS 6000); format: cell-based; details: relative to CIQ (100 uM) = 100%, read-out: NR2D Percent CIQ Avg Max Measured Effect
T2 construct: GenScript (GRIN2D synthesis) SC115601; host or cells: HEK293
Method: GluN2D PAM CIO Flourescence AssayHEK293 cells were transfected to express human GRIN1 (variant NR1-3, Origene, SKU #: SC115601, Rockville, Md.) and GRIN2D (NCBI locus NM_000836, sequence optimized and synthesized by GenScript) and grown as an adherent monolayer at 37° C., 5% CO2 in DMEM/Ham's F12+10% FBS (Hyclone SH3007.03T in the presence of 2.5 mM ARL-15896 (AdooQ Bioscience, Irvine Calif.). To prepare the cells for an experiment, they were rinsed with Dulbecco's PBS (Ca^2+ and Mg^2+ free) and detached from the flask with TrypLE™ Express (Life Technologies, Carlsbad, Calif.) using the manufacturer's recommended methods. Cells collected from the flask were washed twice in Ca^2+/Mg^2+-free Hanks Balanced Salt Solution+20 mM HEPES (HBSS), and counted and assessed for viability with trypan blue. Washed cells were then dye-loaded by resuspending in Fluo-8/AM calcium sensitive dye plus Component B (AAT Bioquest, Sunnyvale, Calif.) diluted in HBSS. To allow cells to take up fluo-8 dye, they were incubated in the dark for 15 min at 37° C., followed by 30 min at 22-25° C. After dye-loading, cells were washed and resuspended in HBSS and plated in 384-well plates (Falcon 353962; Corning, Big Flats, N.Y.) at 20,000-30,000 cells/well in a final volume of 25 μl/well. The cell plates were centrifuged at 200×g, for 2 minutes at 21° C., to create a monolayer of cells at the bottom of the wells.
To initiate an assay, 10 μl of test compound or buffer was added to each well of the cell plate and pre-incubated for 10 minutes in the dark. After 10 minutes, the cell plate was placed in a FDSS 6000 plate reader (Hamamatsu Photonics, Middlesex, N.J.); baseline fluorescence readings were collected for 20 seconds. Next, 25 μl of agonist solution (3 μM glutamate, 3 μM glycine, and 1 mM Ca^2+ in HBSS) was added and the change in fluorescence was recorded for 3 minutes.
Results were calculated by comparing the effects of test compounds to that of the literature standard GluN2C/D PAM CIQ (100 uM). The increase in fluorescence in the presence of CIQ minus the increase induced by glutamate+glycine alone was set to 100%. Responses induced by compounds that were larger than gain the presence of the standard concentration of CIQ were greater than 100% and lesser responses were less than 100%.

T1 sequence (O15399 28-1336, other chains not shown): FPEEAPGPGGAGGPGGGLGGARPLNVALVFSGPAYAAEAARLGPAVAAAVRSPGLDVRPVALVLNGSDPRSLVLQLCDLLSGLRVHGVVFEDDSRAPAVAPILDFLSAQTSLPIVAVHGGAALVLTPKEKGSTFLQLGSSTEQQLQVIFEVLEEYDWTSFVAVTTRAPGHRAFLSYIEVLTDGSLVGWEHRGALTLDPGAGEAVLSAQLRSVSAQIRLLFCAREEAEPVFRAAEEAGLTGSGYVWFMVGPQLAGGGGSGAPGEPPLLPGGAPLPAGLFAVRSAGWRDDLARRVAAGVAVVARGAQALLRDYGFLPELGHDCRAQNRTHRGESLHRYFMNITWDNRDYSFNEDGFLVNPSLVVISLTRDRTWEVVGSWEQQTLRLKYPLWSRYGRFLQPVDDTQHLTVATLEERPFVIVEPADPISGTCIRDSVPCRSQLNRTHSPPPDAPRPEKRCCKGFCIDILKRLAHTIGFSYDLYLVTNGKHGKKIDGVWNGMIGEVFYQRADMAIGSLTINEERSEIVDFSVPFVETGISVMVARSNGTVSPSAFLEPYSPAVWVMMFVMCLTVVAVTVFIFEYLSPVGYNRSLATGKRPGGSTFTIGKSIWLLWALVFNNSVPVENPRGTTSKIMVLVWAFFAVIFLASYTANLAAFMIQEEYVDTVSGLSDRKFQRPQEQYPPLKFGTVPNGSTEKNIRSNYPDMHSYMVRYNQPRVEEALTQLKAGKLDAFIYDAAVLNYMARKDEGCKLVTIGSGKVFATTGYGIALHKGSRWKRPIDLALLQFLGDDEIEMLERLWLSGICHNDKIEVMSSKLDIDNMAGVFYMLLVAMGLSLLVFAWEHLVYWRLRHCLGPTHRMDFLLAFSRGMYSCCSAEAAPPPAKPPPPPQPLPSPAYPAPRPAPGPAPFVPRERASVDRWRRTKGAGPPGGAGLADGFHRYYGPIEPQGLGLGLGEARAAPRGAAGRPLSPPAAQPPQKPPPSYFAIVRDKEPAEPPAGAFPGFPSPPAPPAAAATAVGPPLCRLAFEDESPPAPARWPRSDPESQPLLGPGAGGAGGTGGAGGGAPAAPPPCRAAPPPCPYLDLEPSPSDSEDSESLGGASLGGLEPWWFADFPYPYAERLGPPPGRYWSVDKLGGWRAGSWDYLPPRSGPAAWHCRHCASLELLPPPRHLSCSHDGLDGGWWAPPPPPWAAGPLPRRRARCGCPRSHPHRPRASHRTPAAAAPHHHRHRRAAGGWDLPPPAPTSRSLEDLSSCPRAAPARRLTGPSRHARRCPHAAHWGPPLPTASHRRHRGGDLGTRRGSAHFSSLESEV
T2 sequence (O15399 28-1336, other chains not shown): as above

Row | activation at 10 µM [1] | Emax [2] | Compound
1 | 10 to 100% | 100 to 200% | CC(C)(C)c1cc(-c2nc3n(c(=O)c2C#N)CCCS3)ccn1 [Example 179, 8-(2-tert-butylpyridin-4-yl)-6-oxo-2H,3H,4H,6H-pyrimido[2,1-b][1,3]thiazine-7-carbonitrile]
2 | > 1000% | > 200% | C[C@@H]1CSc2nc(-c3ccc(C(C)(C)C)nc3)c(C#N)c(=N)n2C1 [Example 65, (S)-8-(6-(tert-butyl)pyridin-3-yl)-6-imino-3-methyl-3,4-dihydro-2H,6H-pyrimido[2,1-b][1,3]thiazine-7-carbonitrile]
3 | > 1000% | > 200% | CC1CSc2nc(-c3ccc(C(C)(C)C)nc3)c(C#N)c(=N)n2C1 (centres unmarked) [Example 63, 8-(6-(tert-butyl)pyridin-3-yl)-6-imino-3-methyl-3,4-dihydro-2H,6H-pyrimido[2,1-b][1,3]thiazine-7-carbonitrile]
4 | 10 to 100% | 100 to 200% | CC(C)(C)c1ccc(-c2nc3n(c(=O)c2C#N)CCCS3)nc1 [Example 183, 8-(5-tert-butylpyridin-2-yl)-6-oxo-2H,3H,4H,6H-pyrimido[2,1-b][1,3]thiazine-7-carbonitrile]
